Test results published in patent publication US20240165127A1, “CONTRAST AGENT FOR DIAGNOSIS OF VASCULAR DISEASE CONTAINING GADOLINIUM-BASED COMPOUND AS ACTIVE INGREDIENT AND SYNTHESIS METHOD THEREFOR” (DAEGU CATHOLIC UNIVERSITY INDUSTRY ACADEMIC COOPERATION …, priority 2022, published 2024).
Where “and” joins values, the source holds several entries; their conditions need not be identical. Equal values may be shown once.

How the values were obtained:
elastase activity = test: Ex vivo T1-weighted MRI, CNR and ICP/MS gadolinium content of aortas from rats with induced abdominal aortic aneurysm (AAA) and from healthy rats; set-up: species or system Sprague-Dawley (SD) rats; conditions: for T1-signal intensity in T1-weighted MRI: immersed at 1.28 mM for 1 hour, washed 3 times with PBS
Text: As experimental animals, 7-week-old Sprague-Dawley (SD) rats were used. The rats were maintained on a 12-hour light-dark cycle with free access to water and feed for one week of acclimatization. Then, the rats were randomly divided into a normal control group and an experimental group (aortic aneurysm group), and each group was further divided into a Dotarem-administered group and a Gd-DOTA-click-SF-administered group. Accordingly, the rats were divided into a total of 4 groups, each consisting of 4 animals.
To induce an abdominal aortic aneurysm, rats were anesthetized by inhalation with 2 to 2.5% isoflurane, and then their abdomen was incised to expose the aortic branches. Next, 300 μL of 12U porcine pancreatic elastase was perfused for 10 minutes.
After 5 weeks, the aorta with induced abdominal aortic aneurysm was harvested, immersed in Dotarem or the Gd-DOTA-click-SF of the present disclosure at 1.28 mM for 1 hour under shaking. Then, it was taken out and washed 3 times with PBS. Finally, the samples were placed in PCR tubes filled with PBS and were examined by T1-weighted MRI. The same procedure was also applied to the aorta from the healthy normal control group, which was immersed in Dotarem or the Gd-DOTA-click-SF of the present disclosure at 1.28 mM for 1 hour under shaking. Then, it was taken out and washed 3 times with PBS. Finally, the samples were placed in PCR tubes filled with PBS and were examined by T1-weighted MRI.
The CNRs of the MRI results for the four groups, identified in Example 7, were examined, and the concentrations of gadolinium were measured using ICP/MS (ICP/MS 7700, Agilent, USA).

[1] = Transmetallation kinetics: stability of Gd(III) complex in presence of Zn(II) ions, ICP/MS; type: physicochemical; conditions: 1 mM complex, 250 mM ZnCl2 in phosphate buffer, 0 to 48 hours
Protocol: In vivo, the transmetallation of the Gd complex occurs because Gd^3+ ions compete with other endogenous cations and endogenous anions that destabilize the gadolinium complex and shift the dissociation equilibrium toward its free components. For this reason, the in vitro stability of the Gd(III) complex should be investigated in the presence of Zn(II) ions. 8 μL of a solution of 250 mM ZnCl2 in phosphate buffer was added to 1.5 mL of 1 mM Gd-DOTA-click-SF complex and the mixture was stirred. Thereafter, the solution was collected at 0, 2, 4, 6, 8, 24, and 48 hours and filtered. […] To compare the stability of Gd-DOTA-click-SF with that the clinical contrast agent Dotarem, the same procedure was repeated three times.

[2] = In vitro molar longitudinal relaxivity (r1), 3.0T MRI, inversion recovery method; type: physicochemical; conditions: 25° C., concentrations 0.01, 0.02, 0.04, 0.06, 0.08, and 0.1 mM
Protocol: (§1) To obtain quantitative information on the efficacy of the Gd-DOTA-click-SF probe and Dotarem as MRI contrast agents, the molar longitudinal relaxivities (r1) thereof were analyzed. At 25° C., 3.0T MRI was performed using the inversion recovery method, and 9.4T MRI was performed using the RARE (Rapid Acquisition with Refocused Echoes) method.

[3] = In vitro molar longitudinal relaxivity (r1), 9.4T MRI, RARE method; type: physicochemical; conditions: 25° C.
Protocol: as §1

endothelial C166 cells = test: In vitro cell viability, CCK-8 assay; type: cell-based; conditions: 0.01 to 0.1 mM, 24 hours
Protocol: The cytotoxicity of the Gd-DOTA click-SF probe was assessed against macrophage RAW264.7 cells and endothelial C166 cells using the CCK-8 assay according to the instructions provided by the manufacturer. RAW264.7 cells and endothelial C166 cells were cultured in DMEM containing 10% FBS and 1% penicillin-streptomycin (10000 U/ml). 2.5×10^4 RAW 264.7 cells and 3×10^3 C166 cells per well in 100 μL of DMEM well were seeded in 96-well plates. The cells were cultured at 37° C. for 24 hours in a humidified atmosphere containing 5% CO2, and then for comparison, each of the Gd-DOTA-click-SF probe and Dotarem was added thereto at concentrations of 0.01, 0.025, 0.05, 0.075, and 0.1 mM, followed by incubation at 37° C. for 24 hours. Thereafter, the cells were treated with 10 μl of CCK-8 solution and further cultured for 2 hours at 37° C., and the absorbance of each well was measured at 450 nm using a microplate reader.

## CNC[C@H](O)[C@@H](O)[C@H](O)[C@H](O)CO.O=C([O-])CN1CCN(CC(=O)[O-])CCN(CC(=O)O)CCN(CC(=O)[O-])CC1.[Gd+3] [Dotarem]
Elastase activity; AAA aorta ex vivo
  T1-signal intensity in T1-weighted MRI: did not show high signal intensity
Elastase activity; ex vivo aortas, after washing with PBS
  binding to the arterial wall: very low
Elastase activity; healthy normal aorta ex vivo
  T1-signal intensity in T1-weighted MRI: did not show high signal intensity
[1]
  stability of Gd(III) complex (kinetic inertness, transmetallation): very stable in the presence of Zn(II) ions without transmetallation
[2]
  3.0T r1 (molar longitudinal relaxivity): 2.105 mM^−1s^−1 and 2.211^a mM^−1s^−1
[3]; concentrations 0.01, 0.02, 0.04, 0.06, 0.08, and 0.1 mM
  9.4T r1 (molar longitudinal relaxivity): 4.647 mM^−1s^−1 and 4.647^a mM^−1s^−1
[3]; concentrations 0.04, 0.08, 0.16, 0.32, and 0.64 mM
  9.4T r1 (molar longitudinal relaxivity): 5.064 mM^−1s^−1 and 5.064^b mM^−1s^−1
Endothelial C166 cells
  cell viability / cytotoxicity: non-cytotoxic
